Test results published in US10285989B2, “Pyrimidinone amide compounds as PDE2 inhibitors” (Merck Sharp & Dohme Corp., priority 2015, dated 2019).
Read-outs that look alike come from different tables or passages of the source.

Legend:
Rhesus PDE2A3 = Rhesus PDE2A3 (Macaca mulatta, UniProt B3VTJ2); experiment: PDE2 fluorescence polarization (IMAP FP) inhibition assay, rhesus PDE2A3; type: biochemical, rhesus macaque
human PDE2A1 = human PDE2A1 (Homo sapiens (Human), UniProt O00408); experiment: PDE2 IMAP FP inhibition assay, human PDE2A1 (selectivity panel format); type: biochemical
Sequence of human PDE2A1 (O00408 other isoform, or with tags, fused parts or gaps): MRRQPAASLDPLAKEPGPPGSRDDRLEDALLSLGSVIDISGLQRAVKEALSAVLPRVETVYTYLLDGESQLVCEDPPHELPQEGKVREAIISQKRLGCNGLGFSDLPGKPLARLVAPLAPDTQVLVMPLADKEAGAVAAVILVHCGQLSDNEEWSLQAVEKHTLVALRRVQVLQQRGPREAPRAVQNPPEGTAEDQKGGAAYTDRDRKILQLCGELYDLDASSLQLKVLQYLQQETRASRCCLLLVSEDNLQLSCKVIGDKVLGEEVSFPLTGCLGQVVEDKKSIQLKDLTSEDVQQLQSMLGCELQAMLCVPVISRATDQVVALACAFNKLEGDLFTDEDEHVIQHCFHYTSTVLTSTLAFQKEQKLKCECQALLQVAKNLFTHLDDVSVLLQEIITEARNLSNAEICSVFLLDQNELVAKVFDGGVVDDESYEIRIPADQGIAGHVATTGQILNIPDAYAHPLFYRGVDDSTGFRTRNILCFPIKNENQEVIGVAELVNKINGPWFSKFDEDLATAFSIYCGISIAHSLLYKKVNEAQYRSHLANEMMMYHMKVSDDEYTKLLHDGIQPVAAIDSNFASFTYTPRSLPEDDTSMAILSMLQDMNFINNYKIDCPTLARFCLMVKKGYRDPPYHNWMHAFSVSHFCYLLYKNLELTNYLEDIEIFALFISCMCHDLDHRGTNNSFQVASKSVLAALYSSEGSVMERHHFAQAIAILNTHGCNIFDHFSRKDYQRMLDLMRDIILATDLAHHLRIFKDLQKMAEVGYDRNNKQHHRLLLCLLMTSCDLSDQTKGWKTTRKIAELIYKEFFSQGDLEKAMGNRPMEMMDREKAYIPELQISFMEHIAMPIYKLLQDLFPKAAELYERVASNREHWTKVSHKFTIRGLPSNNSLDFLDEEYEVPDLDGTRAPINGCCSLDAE
Method in brief: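 Enzyme dosed to give about 20% substrate turnover acts for 60 min at room temperature on 50 nM FAM-cAMP plus 1000 nM cGMP (Tris pH 7.2, MgCl2, DTT, Tween-20 buffer). IMAP binding solution then stops the reaction; after 1 h, polarization is measured from parallel and perpendicular fluorescence.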

P-glycoprotein (P-gp) = P-glycoprotein (P-gp) (Homo sapiens (Human), UniProt P08183); experiment: P-gp transport, experimental BA/AB ratio, human; type: in vitro ADME; settings: LLC-PK1, 1 μM substrate concentration
Sequence of P-glycoprotein (P-gp) (P08183 whole entry): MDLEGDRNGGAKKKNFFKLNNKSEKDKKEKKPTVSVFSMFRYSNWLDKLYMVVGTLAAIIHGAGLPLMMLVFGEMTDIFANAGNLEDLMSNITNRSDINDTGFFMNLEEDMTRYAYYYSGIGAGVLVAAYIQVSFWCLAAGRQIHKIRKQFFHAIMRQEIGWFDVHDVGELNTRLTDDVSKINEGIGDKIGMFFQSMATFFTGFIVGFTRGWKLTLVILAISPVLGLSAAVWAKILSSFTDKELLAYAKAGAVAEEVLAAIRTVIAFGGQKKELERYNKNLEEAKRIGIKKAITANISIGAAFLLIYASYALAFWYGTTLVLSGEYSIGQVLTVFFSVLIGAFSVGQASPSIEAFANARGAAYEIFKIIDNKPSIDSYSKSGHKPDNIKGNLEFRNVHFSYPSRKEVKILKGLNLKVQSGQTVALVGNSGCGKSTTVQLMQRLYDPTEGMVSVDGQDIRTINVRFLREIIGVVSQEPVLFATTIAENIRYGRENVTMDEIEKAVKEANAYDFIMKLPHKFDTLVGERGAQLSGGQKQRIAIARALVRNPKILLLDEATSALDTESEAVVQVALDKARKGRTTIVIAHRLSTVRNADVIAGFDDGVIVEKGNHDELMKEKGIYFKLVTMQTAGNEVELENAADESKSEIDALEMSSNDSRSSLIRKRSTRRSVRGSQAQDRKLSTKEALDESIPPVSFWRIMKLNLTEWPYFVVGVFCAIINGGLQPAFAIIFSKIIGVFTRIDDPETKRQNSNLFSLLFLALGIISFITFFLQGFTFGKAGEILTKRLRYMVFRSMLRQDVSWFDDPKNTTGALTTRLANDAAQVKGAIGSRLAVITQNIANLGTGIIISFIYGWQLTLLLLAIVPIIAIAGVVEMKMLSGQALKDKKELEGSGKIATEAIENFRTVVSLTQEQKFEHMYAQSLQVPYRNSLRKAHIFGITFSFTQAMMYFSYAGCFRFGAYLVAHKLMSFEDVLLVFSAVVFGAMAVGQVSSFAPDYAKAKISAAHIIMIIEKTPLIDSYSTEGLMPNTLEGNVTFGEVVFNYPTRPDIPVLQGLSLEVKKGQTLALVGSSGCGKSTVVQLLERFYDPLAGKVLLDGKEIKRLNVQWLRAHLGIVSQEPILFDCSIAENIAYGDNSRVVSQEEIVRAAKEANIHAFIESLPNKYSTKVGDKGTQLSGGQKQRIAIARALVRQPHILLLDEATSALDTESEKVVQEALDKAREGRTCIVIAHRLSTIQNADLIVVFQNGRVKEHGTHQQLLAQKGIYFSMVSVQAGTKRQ
From the text: (§1) See Doan et al. “Passive permeability and P-glycoprotein-mediated efflux differentiate central nervous system (CNS) and non-CNS marketed drugs”, J. Pharm. Exper. […] Desirable human BA/AB ratio is less than 2.0. […] See, for example, Desai, et al. Integration of in Silico and in Vitro Tools for Scaffold Optimization during Drug Discovery: Predicting P-glycoprotein Efflux” Mol. Pharmac.

[1] = target: P-glycoprotein (P-gp, rat Mdr1a) (Rattus norvegicus, UniProt Q6PSM0); experiment: P-gp transport, experimental BA/AB ratio, rat LLC-Mdr1a; type: in vitro ADME; settings: LLC-PK1; rat LLC-Mdrla; 1 μM substrate concentration
Sequence of P-glycoprotein (P-gp, rat Mdr1a) (Q6PSM0 1-1272): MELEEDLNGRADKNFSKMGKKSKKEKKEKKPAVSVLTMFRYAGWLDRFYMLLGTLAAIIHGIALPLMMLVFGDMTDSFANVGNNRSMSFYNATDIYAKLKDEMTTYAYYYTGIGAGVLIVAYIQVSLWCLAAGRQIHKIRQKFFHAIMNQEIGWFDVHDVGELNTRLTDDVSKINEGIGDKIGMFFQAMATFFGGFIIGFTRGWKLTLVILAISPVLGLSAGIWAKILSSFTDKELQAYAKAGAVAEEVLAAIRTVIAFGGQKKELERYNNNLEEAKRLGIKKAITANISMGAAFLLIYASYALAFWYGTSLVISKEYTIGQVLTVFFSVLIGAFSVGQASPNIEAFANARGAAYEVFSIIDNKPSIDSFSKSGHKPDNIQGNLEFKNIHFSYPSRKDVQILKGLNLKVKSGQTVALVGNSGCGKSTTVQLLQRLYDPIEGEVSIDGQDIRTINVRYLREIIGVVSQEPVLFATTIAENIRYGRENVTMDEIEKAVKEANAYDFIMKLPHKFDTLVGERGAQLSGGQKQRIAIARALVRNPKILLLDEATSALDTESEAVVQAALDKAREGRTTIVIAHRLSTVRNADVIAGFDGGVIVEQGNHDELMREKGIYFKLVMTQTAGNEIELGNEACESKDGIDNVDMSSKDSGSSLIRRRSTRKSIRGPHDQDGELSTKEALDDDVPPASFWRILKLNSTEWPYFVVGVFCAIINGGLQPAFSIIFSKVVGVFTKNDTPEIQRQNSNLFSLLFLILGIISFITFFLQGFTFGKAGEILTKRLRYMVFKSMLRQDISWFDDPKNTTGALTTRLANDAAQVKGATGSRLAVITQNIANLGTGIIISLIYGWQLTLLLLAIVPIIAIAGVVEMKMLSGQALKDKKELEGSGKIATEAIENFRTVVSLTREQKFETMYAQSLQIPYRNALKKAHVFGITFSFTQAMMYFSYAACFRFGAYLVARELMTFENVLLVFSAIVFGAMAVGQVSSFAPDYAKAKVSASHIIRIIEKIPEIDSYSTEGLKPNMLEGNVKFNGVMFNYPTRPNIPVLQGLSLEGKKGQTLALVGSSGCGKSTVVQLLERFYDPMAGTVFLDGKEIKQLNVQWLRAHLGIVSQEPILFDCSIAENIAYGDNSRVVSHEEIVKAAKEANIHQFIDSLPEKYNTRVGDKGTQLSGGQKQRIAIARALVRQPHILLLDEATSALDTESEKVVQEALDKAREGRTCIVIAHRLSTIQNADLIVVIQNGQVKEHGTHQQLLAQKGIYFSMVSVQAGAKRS
From the text: as §1

[2] = Lab B, read-out: Rhesus PDE2 Ki (nM) - Lab B
[3] = Lab B, read-out: Human PDE2 Ki (nM) - Lab B
[4] = Rhesus PDE2 Ki (nM) - Lab B, Lab B
[5] = Lab A, read-out: Rhesus PDE2 Ki (nM) - Lab A
[6] = Lab A, read-out: Human PDE2 Ki (nM) - Lab A

Sequence of Rhesus PDE2A3 (B3VTJ2 1-941): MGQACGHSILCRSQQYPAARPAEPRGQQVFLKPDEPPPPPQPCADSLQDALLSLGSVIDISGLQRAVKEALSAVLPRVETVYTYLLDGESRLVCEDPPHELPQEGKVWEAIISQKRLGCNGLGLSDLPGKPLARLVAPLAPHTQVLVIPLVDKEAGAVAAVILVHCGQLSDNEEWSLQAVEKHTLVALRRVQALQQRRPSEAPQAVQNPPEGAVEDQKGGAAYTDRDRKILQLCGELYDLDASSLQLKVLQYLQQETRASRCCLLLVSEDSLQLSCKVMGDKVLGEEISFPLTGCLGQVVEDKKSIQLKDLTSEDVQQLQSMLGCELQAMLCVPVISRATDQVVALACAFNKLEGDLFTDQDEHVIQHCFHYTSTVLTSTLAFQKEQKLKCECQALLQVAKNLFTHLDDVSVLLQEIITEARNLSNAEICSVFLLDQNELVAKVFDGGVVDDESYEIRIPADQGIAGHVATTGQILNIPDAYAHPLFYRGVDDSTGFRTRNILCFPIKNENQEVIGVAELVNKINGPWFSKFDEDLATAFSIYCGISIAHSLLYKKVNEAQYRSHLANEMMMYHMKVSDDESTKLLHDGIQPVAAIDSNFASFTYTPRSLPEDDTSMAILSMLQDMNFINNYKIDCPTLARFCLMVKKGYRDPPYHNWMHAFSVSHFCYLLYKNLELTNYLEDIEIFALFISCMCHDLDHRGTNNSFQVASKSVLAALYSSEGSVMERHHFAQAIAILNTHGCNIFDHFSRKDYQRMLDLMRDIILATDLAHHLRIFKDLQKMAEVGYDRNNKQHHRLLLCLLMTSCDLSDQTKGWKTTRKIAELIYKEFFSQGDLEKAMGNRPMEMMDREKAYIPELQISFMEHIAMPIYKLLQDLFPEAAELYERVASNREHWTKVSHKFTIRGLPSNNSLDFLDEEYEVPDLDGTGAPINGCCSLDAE

Ki (Rhesus PDE2A3; [2]) [nM]	Ki (human PDE2A1; [3]) [nM]	efflux ratio at 1 μM (P-glycoprotein (P-gp))	efflux ratio at 1 μM [1]	Ki (Rhesus PDE2A3; [5]) [nM]	Ki (human PDE2A1; [6]) [nM]	SMILES	Ki (Rhesus PDE2A3; [4]) [nM]
1.8	1.9	27.3	47.2	–	–	CN(C)c1nc(C(=O)NC(c2ccc(SC(F)(F)F)c(F)c2)C2(C)CC2)cc(=O)[nH]1 (single isomer, unassigned) [Example 120, (R)- or (S)-2-(dimethylamino)-N-[{3-fluoro-4-[(trifluoromethyl)sulfanyl]phenyl}(1-methylcyclopropyl)methyl]-6-oxo-1,6-dihydropyrimidine-4-carboxamide]	–
0.22	0.15	1.4	4.8	–	–	CN(C)c1nc(C(=O)NC(c2ccc(S(F)(F)(F)(F)F)cc2F)C(C)(C)C)cc(=O)[nH]1 (single isomer, unassigned) [Example 128, (R)- or (S)-2-(dimethylamino)-N-{1-[2-fluoro-4-(pentafluoro-λ^6-sulfanyl)phenyl]-2,2-dimethylpropyl}-6-oxo-1,6-dihydropyrimidine-4-carboxamide]	–
1.2	0.89	0.6	1.3	–	–	CCC(C)(NC(=O)c1cc(=O)[nH]c(N(C)C)n1)c1ccc(C(F)(F)F)cc1F (single isomer, unassigned) [Example 130, (R)- or (S)-2-(dimethylamino)-N-{1-[2-fluoro-4-(trifluoromethyl)phenyl]-1-methylpropyl}-6-oxo-1,6-dihydro-pyrimidine-4-carboxamide]	–
–	–	0.8	7.2	1.3	0.48	O=C(NC1(c2ccc(C(F)(F)F)c(F)c2)CC1)c1cc(=O)[nH]c(N2CCCC2)n1 [Example 1, N-(1-(3-fluoro-4-(trifluoromethyl)phenyl)cyclopropyl)-6-oxo-2-(pyrrolidin-1-yl)-1,6-dihydropyrimidine-4-carboxamide]	–
1.2	1	0.6	3.1	–	–	CN(C)c1nc(C(=O)N[C@@H](c2ccc(S(F)(F)(F)(F)F)cc2)C2CC2)cc(=O)[nH]1 [Example 4, (R)—N-(cyclopropyl(4-(pentafluoro-λ^6-sulfanyl)phenyl)methyl)-2-(dimethylamino)-6-oxo-1,6-dihydropyrimidine-4-carboxamide]	–
6.4	5.3	1.1	–	–	–	CN(C)c1nc(C(=O)N[C@@H](c2ccc(OC(F)F)cc2)C2CC2)cc(=O)[nH]1 [Example 32, N-{(R)-cyclopropyl[4-(difluoromethoxy)phenyl]methyl}-2-(dimethylamino)-6-oxo-1,6-dropyrimidine-4-carboxamide]	–
2.7	2	1.3	–	–	–	CC(C)[C@@H](NC(=O)c1cc(=O)[nH]c(N(C)C)n1)c1ccc(OC(F)F)cc1 [Example 33, N-{(1R)-1-[4-(difluoromethoxy)phenyl]-2-methylpropyl}-2-(dimethylamino)-6-oxo-1,6-dihydropyrimidine-4-carboxamide]	–
0.11	0.14	1	–	–	–	CN(C)c1nc(C(=O)N[C@@H](c2ccc(S(F)(F)(F)(F)F)cc2)C(C)(C)C)cc(=O)[nH]1 [Example 38, 2-(dimethylamino)-N-{(1R)-2,2-dimethyl-1-[4-(pentafluoro-λ^6-sulfanyl)phenyl]propyl}-6-oxo-1,6-dihydropyrimidine-4-carboxamide]	–
–	2	0.8	4.2	–	–	CN(C)c1nc(C(=O)N[C@@H](c2ccc(C(F)F)c(F)c2)C2(C)CC2)cc(=O)[nH]1 [Example 59, N-[(R)-[4-(difluoromethyl)-3-fluorophenyl](1-methylcyclopropyl)methyl]-2-(dimethylamino)-6-oxo-1,6-dihydropyrimidine-4-carboxamide]	–
–	1.9	1.7	10.2	–	–	CC(C)[C@@H](NC(=O)c1cc(=O)[nH]c(N(C)C)n1)c1ccc(C(F)F)cc1 [Example 63, N-{(1R)-1-[4-(difluoromethyl)phenyl]-2-methylpropyl}-2-(dimethylamino)-6-oxo-1,6-dihydropyrimidine-4-carboxamide]	–
–	7.4	0.8	5.6	–	–	CN(C)c1nc(C(=O)N[C@@H](c2ccc(C(F)F)cc2)C2CC2)cc(=O)[nH]1 [Example 64, N-{(R)-cyclopropyl[4-(difluoromethyl)phenyl]methyl}-2-(dimethylamino)-6-oxo-1,6-dihydropyrimidine-4-carboxamide]	–
–	5	0.8	6.1	–	–	CN(C)c1nc(C(=O)N[C@@H](c2ccc(C(F)F)c(F)c2)C2CC2)cc(=O)[nH]1 [Example 66, N-{(R)-cyclopropyl[4-(difluoromethyl)-3-fluorophenyl]methyl}-2-(dimethylamino)-6-oxo-1,6-dihydropyrimidine-4-carboxamide]	–
1	0.76	0.3	–	–	–	CN(C)c1nc(C(=O)N[C@@H](c2ccc(C3CC3)cc2)C2CC2)cc(=O)[nH]1 [Example 115, N-[(R)-cyclopropyl(4-cyclopropylphenyl)methyl]-2-(dimethylamino)-6-oxo-1,6-dihydropyrimidine-4-carboxamide]	–
–	6.3	13.9	34	–	–	CC(C)(C)[C@@H](NC(=O)c1cc(=O)[nH]c(N)n1)c1ccc(C(F)(F)F)cc1 [Example 157, 2-amino-N-{(1R)-2,2-dimethyl-1-[4-(trifluoromethyl)phenyl]propyl}-6-oxo-1,6-dihydropyrimidine-4-carboxamide]	–
–	0.85	7.8	24.4	–	–	CNc1nc(C(=O)N[C@@H](c2ccc(C(F)(F)F)cc2)C(C)(C)C)cc(=O)[nH]1 [Example 158, N-{(1R)-2,2-dimethyl-1-[4-(trifluoromethyl)phenyl]propyl}-2-(methylamino)-6-oxo-1,6-dihydropyrimidine-4-carboxamide]	–
–	–	–	–	18	11	Cc1ncc2c(n1)CN(c1nc(C(=O)N[C@H](C)c3ccc(C(F)(F)F)cc3)cc(=O)[nH]1)C2 [Example 159, 2-(2-methyl-5,7-dihydro-6H-pyrrolo[3,4-d]pyrimidin-6-yl)-6-oxo-N-{(1R)-1-[4-(trifluoromethyl)phenyl]ethyl}-1,6-dihydropyrimidine-4-carboxamide]	–
–	0.11	5.6	10.7	–	–	CO[C@H]1CCN(c2nc(C(=O)N[C@@H](c3ccc(C(F)(F)F)cc3)C(C)(C)C)cc(=O)[nH]2)C1 [Example 170, N-{(1R)-2,2-dimethyl-1-[4-(trifluoromethyl)phenyl]propyl}-2-[(3S)-3-methoxypyrrolidin-1-yl]-6-oxo-1,6-dihydropyrimidine-4-carboxamide]	–
–	1.4	3.1	24.4	–	–	CO[C@@H]1CCN(c2nc(C(=O)N[C@@H](c3ccc(C(F)(F)F)cc3)C(C)(C)C)cc(=O)[nH]2)C1 [Example 171, N-{(1R)-2,2-dimethyl-1-[4-(trifluoromethyl)phenyl]propyl}-2-[(3R)-3-methoxypyrrolidin-1-yl]-6-oxo-1,6-dihydropyrimidine-4-carboxamide]	–
–	–	–	–	108	75	COCCCOc1nc(C(=O)NC(C)c2ccc(C(F)(F)F)cc2)cc(=O)[nH]1 (centres unmarked) [Example 179, 2-(3-methoxypropoxy)-6-oxo-N-{1-[4-(trifluoromethyl)phenyl]ethyl}-1,6-dihydropyrimidine-4-carboxamide]	–

SMILES	Ki (Rhesus PDE2A3; [2]) [nM]	Ki (human PDE2A1; [3]) [nM]	efflux ratio at 1 μM (P-glycoprotein (P-gp))	efflux ratio at 1 μM [1]	Ki (Rhesus PDE2A3; [5]) [nM]	Ki (human PDE2A1; [6]) [nM]	Ki (Rhesus PDE2A3; [4]) [nM]
CC(C)C(C)(NC(=O)c1cc(=O)[nH]c(N(C)C)n1)c1ccc(S(F)(F)(F)(F)F)cc1 (single isomer, unassigned) [Example 173, (S)- or (R)-2-(dimethylamino)-N-{1,2-dimethyl-1-[4-(pentafluoro-λ^6-sulfanyl)phenyl]propyl}-6-oxo-1,6-dihydropyrimidine-4-carboxamide]	–	6.5	0.8	3.6	–	–	6.6
COCC1CCN(c2nc(C(=O)N[C@@H](c3ccc(C(F)(F)F)cc3)C(C)(C)C)cc(=O)[nH]2)C1 (single isomer, unassigned) [Example 176, (R)- or (S)-N-{(1R)-2,2-dimethyl-1-[4-(trifluoromethyl)phenyl]propyl}-2-[3-(methoxy-methyl)pyrrolidin-1-yl]-6-oxo-1,6-dihydro-pyrimidine-4-carboxamide]	–	0.38	5.4	19.1	–	–	–
CN(C)c1nc(C(=O)N[C@@H](c2ccc(C(F)(F)F)cc2)C(C)(C)C)cc(=O)[nH]1 [Example 2, (R)—N-(2,2-dimethyl-1-(4-(trifluoromethyl)phenyl)propyl)-2-(dimethylamino)-6-oxo-1,6-dihydropyrimidine-4-carboxamide]	–	0.15	0.6	2.6	–	–	0.11
